Experiment [1] has as its system HCV genotype 1a (H77 strain) replicon in HUH-7 cells. Nature of the experiment: HCV replicon luciferase reporter assay, genotype 1a. In kind it is cell-based. The following applies: Hepatitis C virus, Huh-7, 72 h, HCV genotype 1a replicon luciferase, 3 days incubation, read-out: LE_1a (EC50, range). In short, it runs like this:
(§1)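 Replicon inhibition for both genotypes was measured as Renilla luciferase signal (EnduRen, 7.5 μM final, 2 h) after 3-day, 37° C exposure of replicon-bearing HUH-7 cells in 4% FCS DMEM, 0.5% DMSO. The 1b construct carries S1179I; the 1a H77 construct carries P1496L and S2204I. Twenty-point, 3-fold dilutions were fitted four-parametrically for EC50, and CC50 was taken from multiplexed Cell Titer-Blue.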
On the technique in general: A replicon is a self-replicating genome or part of one, used to study replication in cells.

Experiment [2] relates to HCV genotype 1b (Con1) replicon in HUH-7 cells. Nature of the experiment: HCV replicon luciferase reporter assay, genotype 1b. Particulars: Hepatitis C virus, Huh-7, 72 h, HCV genotype 1b replicon luciferase, 3 days incubation, read-out: LE_1b (EC50, range). In kind it is cell-based. In short, it runs like this: as §1

By EC50 is commonly meant the concentration needed to bring the measured effect to its halfway point. On to `COc1cc2cc(F)ccc2c(O[C@@H]2C[C@H]3C(=O)N[C@]4(C(=O)NS(=O)(=O)C5(CF)CC5)C[C@H]4/C=C\CC[C@@H](C)C[C@@H](C)[C@H](NC(=O)OC(C)(C)C)C(=O)N3C2)n1` [Compound 3210, tert-butyl ((2R,6S,7R,9R,13aS,14aR,16aS,Z)-2-((6-fluoro-3-methoxyisoquinolin-1-yl)oxy)-14a-(((1-(fluoromethyl)cyclopropyl)sulfonyl)carbamoyl)-7,9-dimethyl-5,16-dioxo-1,2,3,5,6,7,8,9,10,11,13a,14,14a,15,16,16a-hexadecahydrocyclopropa[e]pyrrolo[1,2-a][1,4]diazacyclopentadecin-6-yl)carbamate], for which the results for the EC50 in experiment [1] and in experiment [2] were 1.01 to 5 nM and 0.1 to 0.5 nM, respectively.
On the same counts, the results for `CC[C@@H]1C[C@H](C)CC/C=C\[C@@H]2C[C@@]2(C(=O)NS(=O)(=O)C2(C)CC2)NC(=O)[C@@H]2C[C@@H](Oc3nc(OC)cc4cc(F)ccc34)CN2C(=O)[C@H]1NC(=O)OC(C)(C)C` [Compound 3212, tert-butyl ((2R,6S,7R,9R,13aS,14aR,16aS,Z)-7-ethyl-2-((6-fluoro-3-methoxyisoquinolin-1-yl)oxy)-9-methyl-14a-(((1-methylcyclopropyl)sulfonyl)carbamoyl)-5,16-dioxo-1,2,3,5,6,7,8,9,10,11,13a,14,14a,15,16,16a-hexadecahydrocyclopropa[e]pyrrolo[1,2-a][1,4]diazacyclopentadecin-6-yl)carbamate] are 0.51 to 1 nM and 0.1 to 0.5 nM.
On the same counts, the results for `COc1cc2cc(F)ccc2c(O[C@@H]2C[C@H]3C(=O)N[C@]4(C(=O)NS(=O)(=O)C5(CF)CC5)C[C@H]4/C=C\CC[C@@H](C)C[C@@H](C)[C@H](NC(=O)OC(C)(C)C(F)(F)F)C(=O)N3C2)n1` [Compound 3214, 1,1,1-trifluoro-2-methylpropan-2-yl((2R,6S,7R,9R,13aS,14aR,16aS,Z)-2-((6-fluoro-3-methoxyisoquinolin-1-yl)oxy)-14a-(((1-(fluoromethyl)cyclopropyl)sulfonyl)carbamoyl)-7,9-dimethyl-5,16-dioxo-1,2,3,5,6,7,8,9,10,11,13a,14,14a,15,16,16a-hexadecahydrocyclopropa[e]pyrrolo[1,2-a][1,4]diazacyclopentadecin-6-yl)carbamate] are 1.01 to 5 nM and 0.1 to 0.5 nM.
On the same counts, the results for `CC[C@@H]1C[C@H](C)CC/C=C\[C@@H]2C[C@@]2(C(=O)NS(=O)(=O)C2(C)CC2)NC(=O)[C@@H]2C[C@@H](Oc3nc(OC)cc4cc(F)ccc34)CN2C(=O)[C@H]1NC(=O)OC(C)(C)C(C)(F)F` [Compound 3216, 3,3-difluoro-2-methylbutan-2-yl((2R,6S,7R,9R,13aS,14aR,16aS,Z)-7-ethyl-2-((6-fluoro-3-methoxyisoquinolin-1-yl)oxy)-9-methyl-14a-(((1-methylcyclopropyl)sulfonyl)carbamoyl)-5,16-dioxo-1,2,3,5,6,7,8,9,10,11,13a,14,14a,15,16,16a-hexadecahydrocyclopropa[e]pyrrolo[1,2-a][1,4]diazacyclopentadecin-6-yl)carbamate] are 1.01 to 5 nM and 0.1 to 0.5 nM.
On to `COc1cc2cc(F)ccc2c(O[C@@H]2C[C@H]3C(=O)N[C@]4(C(=O)NS(=O)(=O)C5(CF)CC5)C[C@H]4/C=C\CC[C@@H](C)C[C@@H](C)[C@H](NC(=O)OC(C)(C)C(C)(F)F)C(=O)N3C2)n1` [Compound 3218, 3,3-difluoro-2-methylbutan-2-yl((2R,6S,7R,9R,13aS,14aR,16aS,Z)-2-((6-fluoro-3-methoxyisoquinolin-1-yl)oxy)-14a-(((1-(fluoromethyl)cyclopropyl)sulfonyl)carbamoyl)-7,9-dimethyl-5,16-dioxo-1,2,3,5,6,7,8,9,10,11,13a,14,14a,15,16,16a-hexadecahydrocyclopropa[e]pyrrolo[1,2-a][1,4]diazacyclopentadecin-6-yl)carbamate], for which the EC50 lay within 1.01 to 5 nM in experiment [1] and 0.1 to 0.5 nM in experiment [2].
On the same counts, the results for `CC[C@@H]1C[C@H](C)CC/C=C\[C@@H]2C[C@@]2(C(=O)NS(=O)(=O)C2(C)CC2)NC(=O)[C@@H]2C[C@@H](Oc3nc(OC)cc4cc(F)ccc34)CN2C(=O)[C@H]1NC(=O)OC(C)(C)C(F)(F)F` [Compound 3220, 1,1,1-trifluoro-2-methylpropan-2-yl((2R,6S,7R,9R,13aS,14aR,16aS,Z)-7-ethyl-2-((6-fluoro-3-methoxyisoquinolin-1-yl)oxy)-9-methyl-14a-(((1-methylcyclopropyl)sulfonyl)carbamoyl)-5,16-dioxo-1,2,3,5,6,7,8,9,10,11,13a,14,14a,15,16,16a-hexadecahydrocyclopropa[e]pyrrolo[1,2-a][1,4]diazacyclopentadecin-6-yl)carbamate] are 1.01 to 5 nM and 0.1 to 0.5 nM.
With `CC[C@@H]1C[C@H](C)CC/C=C\[C@@H]2C[C@@]2(C(=O)NS(=O)(=O)C2(C)CC2)NC(=O)[C@@H]2C[C@@H](Oc3nccc4cc(OC)c(Cl)cc34)CN2C(=O)[C@H]1NC(=O)OC(C)(C)C(F)(F)F` [Compound 3222, 1,1,1-trifluoro-2-methylpropan-2-yl((2R,6S,7R,9R,13aS,14aR,16aS,Z)-2-((7-chloro-6-methoxyisoquinolin-1-yl)oxy)-7-ethyl-9-methyl-14a-(((1-methylcyclopropyl)sulfonyl)carbamoyl)-5,16-dioxo-1,2,3,5,6,7,8,9,10,11,13a,14,14a,15,16,16a-hexadecahydrocyclopropa[e]pyrrolo[1,2-a][1,4]diazacyclopentadecin-6-yl)carbamate], the EC50 in experiment [1] and in experiment [2] was 1.01 to 5 nM each time.
Take `CC[C@@H]1C[C@H](C)CC/C=C\[C@@H]2C[C@@]2(C(=O)NS(=O)(=O)C2(C)CC2)NC(=O)[C@@H]2C[C@@H](Oc3nccc4cc(OC)c(Cl)cc34)CN2C(=O)[C@H]1NC(=O)OC(C)(C)C(C)(F)F` [Compound 3224, 3,3-difluoro-2-methylbutan-2-yl((2R,6S,7R,9R,13aS,14aR,16aS,Z)-2-((7-chloro-6-methoxyisoquinolin-1-yl)oxy)-7-ethyl-9-methyl-14a-(((1-methylcyclopropyl)sulfonyl)carbamoyl)-5,16-dioxo-1,2,3,5,6,7,8,9,10,11,13a,14,14a,15,16,16a-hexadecahydrocyclopropa[e]pyrrolo[1,2-a][1,4]diazacyclopentadecin-6-yl)carbamate]: the EC50 in experiment [1] and in experiment [2] was 1.01 to 5 nM throughout.
As to `CC[C@@H]1C[C@H](C)CC/C=C\[C@@H]2C[C@@]2(C(=O)NS(=O)(=O)C2(C)CC2)NC(=O)[C@@H]2C[C@@H](Oc3nccc4cc(OC)c(Cl)cc34)CN2C(=O)[C@H]1NC(=O)OC(C)(C)C(F)F` [Compound 3226, 1,1-difluoro-2-methylpropan-2-yl((2R,6S,7R,9R,13aS,14aR,16aS,Z)-2-((7-chloro-6-methoxyisoquinolin-1-yl)oxy)-7-ethyl-9-methyl-14a-(((1-methylcyclopropyl)sulfonyl)carbamoyl)-5,16-dioxo-1,2,3,5,6,7,8,9,10,11,13a,14,14a,15,16,16a-hexadecahydrocyclopropa[e]pyrrolo[1,2-a][1,4]diazacyclopentadecin-6-yl)carbamate], the concentration giving a half-maximal response (EC50) is 1.01 to 5 nM in experiment [1] and 0.51 to 1 nM in experiment [2].
The matching figures for `CC[C@@H]1C[C@H](C)CC/C=C\[C@@H]2C[C@@]2(C(=O)NS(=O)(=O)C2CC2)NC(=O)[C@@H]2C[C@H](Oc3ncc(OC)c4ccc(F)cc34)CN2C(=O)[C@@H]1NC(=O)OC(C)(C)C` [Compound 4001, tert-butyl tert-butyl (2R,6S,7R,9R,13aS,14aR,16aS,Z)-14a-(cyclopropylsulfonylcarbamoyl)-7-ethyl-2-(7-fluoro-4-methoxyisoquinolin-1-yloxy)-9-methyl-5,16-dioxo-1,2,3,5,6,7,8,9,10,11,13a,14,14a,15,16,16a-hexadecahydrocyclopropa[e]pyrrolo[1,2-a][1,4]diazacyclopentadecin-6-ylcarbamate]: below 5.46 nM and below 5.46 nM.
The matching figures for `CC[C@@H]1C[C@H](C)CC/C=C\[C@@H]2C[C@@]2(C(=O)NS(=O)(=O)C2CC2)NC(=O)[C@@H]2C[C@@H](Oc3ncc(OC)c4ccc(F)cc34)CN2C(=O)[C@H]1NC(=O)OC(C)(C)C(F)(F)F` [Compound 4002, 1,1,1-trifluoro-2-methylpropan-2-yl (2R,6S,7R,9R,13aS,14aR,16aS,Z)-14a-(cyclopropylsulfonylcarbamoyl)-7-ethyl-2-(7-fluoro-4-methoxyisoquinolin-1-yloxy)-9-methyl-5,16-dioxo-1,2,3,5,6,7,8,9,10,11,13a,14,14a,15,16,16a-hexadecahydrocyclopropa[e]pyrrolo[1,2-a][1,4]diazacyclopentadecin-6-ylcarbamate]: below 5.46 nM and below 5.46 nM.
The matching figures for `CC[C@@H]1C[C@H](C)CC/C=C\[C@@H]2C[C@@]2(C(=O)NS(=O)(=O)C2CC2)NC(=O)[C@@H]2C[C@@H](Oc3nccc4cc(OC)c(F)cc34)CN2C(=O)[C@H]1NC(=O)OC(C)(C)C` [Compound 4003, tert-butyl (2R,6S,7R,9R,13aS,14aR,16aS,Z)-14a-(cyclopropylsulfonylcarbamoyl)-7-ethyl-2-(7-fluoro-6-methoxyisoquinolin-1-yloxy)-9-methyl-5,16-dioxo-1,2,3,5,6,7,8,9,10,11,13a,14,14a,15,16,16a-hexadecahydrocyclopropa[e]pyrrolo[1,2-a][1,4]diazacyclopentadecin-6-ylcarbamate]: below 5.46 nM and below 5.46 nM.

The values above are taken from patent publication US9499550B2 (BRISTOL-MYERS SQUIBB COMPANY, priority 2012, dated 2016).
